The values below come from patent US7601753B2, “Pyrrolidine melanocortin-specific compounds” (Palatin Technologies, Inc., priority 2001, dated 2009).

A word on the inhibition: it is the drop in the measured response relative to a control, in per cent. What is called Ki is a dissociation constant, usually derived from enzyme kinetics or from competition with a known ligand. In general, Inhibition refers to the relative decrease from the control value, in per cent.

Like-named read-outs stand apart in the source and are kept apart here. Non-standard residues stand in square brackets, D forms with d. Residues, ends and D or L forms follow the SMILES beside them. *: point of attachment. Hyp = O=C(O)[C@@H]1C[C@@H](O)CN1; Nle = CCCC[C@H](N)C(=O)O; NH(CH2)3NH2 = NCCCN*; Bn = c1ccc(C*)cc1

Assay [1] has as its target T1, MC1-R (B-16 mouse melanoma cells) (Mus musculus, UniProt Q01727).
T1 construct: membranes prepared from hMC3-R, hMC4-R, hMC5-R, and B-16 mouse melanoma cells (containing MC1-R); endogenous in cells; host or cells: B-16 mouse melanoma cells (membranes)
Kind of assay: Competitive inhibition binding assay, 125I-NDP-α-MSH, MC1-R. The following applies: 1 μM test compound; 0.4 nM 125I-NDP-α-MSH; B-16 mouse melanoma cell membranes; mean of triplicates; results less than 0% reported as 0%. Here is the method:
(§1) A competitive inhibition binding assay was conducted using membranes prepared from hMC3-R, hMC4-R, hMC5-R, and B-16 mouse melanoma cells (containing MC1-R) using 0.4 nM ^125I-NDP-α-MSH (New England Nuclear, Boston, Mass., USA) in 50 mM HEPES buffer containing 1 mM MgCl2, 2 mM CaCl2, and 5 mM KCl, at pH 7.2. The assay tube also contained a chosen concentration of the test compound of this invention, typically a 1 μM concentration, for determining its efficacy in inhibiting the binding of ^125I-NDP-α-MSH to its receptor.
(§2) Incubation was for 90 minutes at room temperature, after which the assay mixture was filtered and the membranes washed three times with ice cold buffer. The filter was dried and counted in a gamma counter for remaining radioactivity bound to the membranes. 100% specific binding was defined as the difference in radioactivity (cpm) bound to cell membranes in the absence and presence of 1 μM α-MSH. […] Each assay was conducted in triplicate and the actual mean values are described.

For assay [2], the target named is T2, MC5-R (HEK-293 cells expressing MC5-R) (Homo sapiens, UniProt P33032).
T2 construct: expressed in transfected cells; host or cells: HEK-293
T2 sequence (P33032 whole entry): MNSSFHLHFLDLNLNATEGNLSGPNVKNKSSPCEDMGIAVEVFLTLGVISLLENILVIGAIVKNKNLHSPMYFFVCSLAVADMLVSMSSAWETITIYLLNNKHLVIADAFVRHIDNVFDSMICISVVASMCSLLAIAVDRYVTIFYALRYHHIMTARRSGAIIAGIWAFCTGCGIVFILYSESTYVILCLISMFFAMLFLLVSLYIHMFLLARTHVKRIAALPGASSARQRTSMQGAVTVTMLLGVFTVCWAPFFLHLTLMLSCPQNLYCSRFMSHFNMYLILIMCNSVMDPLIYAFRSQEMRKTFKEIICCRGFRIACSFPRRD
Nature of the assay: Ki determination by the method of Example 3, MC5-R. The assay is classed as cell-based.

Assay [3] concerns the target T3, hMC5-R (Homo sapiens, UniProt P33032).
T3 construct: expressed in transfected cells
Nature of the assay: Competitive inhibition binding assay, 125I-NDP-α-MSH, hMC5-R. The following applies: 1 μM test compound, 0.4 nM 125I-NDP-α-MSH, hMC5-R membranes, mean of triplicates, results less than 0% reported as 0%; for inhibition at 1 µM: read-out: Inhibition at 1 μM MC5-R. The protocol: as §1, §2

Assay [4] concerns the target T4, MC3-R (HEK-293 cells expressing MC3-R) (Homo sapiens, UniProt P41968).
T4 construct: expressed in transfected cells; host or cells: HEK-293
Nature of the assay: Ki determination by the method of Example 3, MC3-R. The assay is classed as cell-based. The following applies: bound in μM.

Assay [5] has as its target T5, MC4-R (HEK-293 cells expressing MC4-R) (Homo sapiens, UniProt P32245).
T5 construct: expressed in transfected cells; host or cells: HEK-293
Kind of assay: Ki determination by the method of Example 3, MC4-R. The assay is classed as cell-based. The following applies: bound in μM.

Assay [6] has as its target T6, hMC3-R (Homo sapiens, UniProt P41968).
T6 construct: expressed in transfected cells
Nature of the assay: Competitive inhibition binding assay, 125I-NDP-α-MSH, hMC3-R. The following applies: 1 μM test compound, 0.4 nM 125I-NDP-α-MSH, hMC3-R membranes, mean of triplicates, results less than 0% reported as 0%; for inhibition at 1 µM: read-out: Inhibition at 1 μM MC3-R. Here is the method:
as §1, §2

Assay [7] deals with T1, MC1-R (B-16 mouse melanoma cells). Kind of assay: Ki determination by the method of Example 3, MC1-R. The assay is classed as cell-based.
The target of assay [8] is T7, hMC4-R (Homo sapiens, UniProt P32245).
T7 construct: expressed in transfected cells
T7 sequence (P32245 whole entry): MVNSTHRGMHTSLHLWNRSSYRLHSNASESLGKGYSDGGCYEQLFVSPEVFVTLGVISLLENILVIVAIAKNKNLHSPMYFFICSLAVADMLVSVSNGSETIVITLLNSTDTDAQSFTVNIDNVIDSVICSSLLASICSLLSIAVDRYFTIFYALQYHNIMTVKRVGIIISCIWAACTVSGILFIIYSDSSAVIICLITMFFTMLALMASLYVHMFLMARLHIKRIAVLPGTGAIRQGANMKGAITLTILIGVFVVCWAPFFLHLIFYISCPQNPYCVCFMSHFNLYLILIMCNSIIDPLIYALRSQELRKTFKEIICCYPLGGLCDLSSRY
Nature of the assay: Competitive inhibition binding assay, 125I-NDP-α-MSH, hMC4-R. The following applies: 1 μM test compound, 0.4 nM 125I-NDP-α-MSH, hMC4-R membranes, mean of triplicates, results less than 0% reported as 0%; for inhibition at 1 µM: read-out: Inhibition at 1 μM MC4-R. The protocol: as §1, §2

T3 sequence (P33032 whole entry): as the sequence (P33032 whole entry) above
T6 sequence (P41968 whole entry): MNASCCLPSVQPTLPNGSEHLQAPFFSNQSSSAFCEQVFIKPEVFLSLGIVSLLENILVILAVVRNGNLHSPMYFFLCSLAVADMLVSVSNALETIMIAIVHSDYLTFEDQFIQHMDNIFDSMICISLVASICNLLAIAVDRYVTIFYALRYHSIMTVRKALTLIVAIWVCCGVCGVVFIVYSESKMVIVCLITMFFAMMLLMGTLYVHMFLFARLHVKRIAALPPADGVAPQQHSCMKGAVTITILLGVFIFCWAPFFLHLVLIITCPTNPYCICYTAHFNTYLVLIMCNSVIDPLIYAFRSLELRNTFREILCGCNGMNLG
T1 sequence (Q01727 whole entry): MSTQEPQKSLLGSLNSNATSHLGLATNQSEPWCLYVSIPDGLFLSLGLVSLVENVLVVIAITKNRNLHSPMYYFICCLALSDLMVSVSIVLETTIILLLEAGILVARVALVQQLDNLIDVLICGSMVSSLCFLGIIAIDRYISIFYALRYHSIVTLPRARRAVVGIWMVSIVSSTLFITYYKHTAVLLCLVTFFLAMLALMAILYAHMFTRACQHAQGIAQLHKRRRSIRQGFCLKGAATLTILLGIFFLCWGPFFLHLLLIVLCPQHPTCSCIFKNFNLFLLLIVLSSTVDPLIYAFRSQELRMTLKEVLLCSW
T5 sequence (P32245 whole entry): as the sequence (P32245 whole entry) above
T4 sequence (P41968 whole entry): as the sequence (P41968 whole entry) above

As to `CCCC[C@H](NC(C)=O)C(=O)N[C@@H](C)C(=O)N[C@@H](Cc1cnc[nH]1)C(=O)N[C@H](Cc1ccccc1)C(=O)N1C[C@H](OCc2ccccc2)C[C@H]1C(=O)NCCCN` [Example 9, Ac-Nle-Ala-His-D-Phe-Hyp(Bzl)-NH(CH2)3—NH2] (Ac-[Nle]AH[dF][Hyp](Bn)-{NH(CH2)3NH2}), the inhibition at 1 µM is 91% in assay [1], 25% in assay [3], 13% in assay [6] and 8% in assay [8]. Moreover, the Ki in assay [2] (bound in μM, read-out: Ki MC5-R) was > 1 µM; in assay [4] it was > 1 µM; in assay [5], > 1 µM; in assay [7] (MC1-R, values in nM, read-out: Ki (nM) MC1-R), 10 nM.

With `CCCC[C@H](N)C(=O)N[C@@H](C)C(=O)N[C@@H](Cc1cnc[nH]1)C(=O)N[C@H](Cc1ccccc1)C(=O)N1C[C@H](OCc2ccccc2)C[C@H]1C(=O)NCCCN` [Example 10] (H-[Nle]AH[dF][Hyp](Bn)-{NH(CH2)3NH2}), the inhibition at 1 µM stood at 83% in assay [1], 7% in assay [3], 6% in assay [6] and 2% in assay [8]. Besides, in assay [7], the Ki was determined as 70 nM.

In the case of `[2H]N[C@@H](Cc1cnc[nH]1)C(=O)N[C@@H](Cc1ccccc1)C(=O)N1C[C@H](OCc2ccccc2)C[C@H]1C(=O)NCCCN` [Example 12], the inhibition at 1 µM in assay [1] stood at 48%; in assay [3] it was 2%; in assay [6] it was 0%; in assay [8], 0%.

Turning to `C[C@@H]1CN(C(=O)[C@H](N)Cc2ccc(Cl)cc2)[C@@H](CCCNC(=N)N)CN1CCc1ccc2ccccc2c1` [Example 15], the “Inhibition at 1 μM MC1-R” value in assay [1] amounted to 85%. For the same compound, the “Inhibition at 1 μM MC5-R” value in assay [3] is recorded as 34%. Moreover, the “Inhibition at 1 μM MC3-R” value in assay [6] worked out at 46%. In addition, the “Inhibition at 1 μM MC4-R” value in assay [8] was found to be 43%.

Regarding `NCCCNC(=O)[C@@H]1C[C@@H](OCc2ccccc2)CN1C(=O)[C@@H](Cc1ccc(Cl)cc1)NC(=O)[C@@H]1Cc2ccccc2CN1` [Example 21], the inhibition at 1 µM in assay [1] is 40%; in assay [3], 48%; in assay [6] it was 6%; in assay [8], 29%. In addition, the inhibition constant (Ki) in assay [2] (value in nM, read-out: Ki (nM) MC5-R) is 1.15 µM.

Consider `NCCCNC(=O)[C@@H]1C[C@@H](OCc2ccccc2)CN1C(=O)[C@@H](Cc1ccc(Cl)cc1)NC(=O)[C@H]1Cc2ccccc2CN1` [Example 22], for which the inhibition at 1 µM in assay [1] was found to be 29%; in assay [3], 38%; in assay [6], 10%; in assay [8] it was 27%.

For the compound `NCCCNC(=O)[C@@H]1C[C@@H](OCc2ccccc2)CN1C(=O)[C@@H](Cc1ccccc1)NC(=O)[C@@H]1Cc2ccccc2CN1` [Example 23], the inhibition at 1 µM in assay [1] was found to be 34%; in assay [3] it was 14%; in assay [6], 0%; in assay [8] it was 6%.

As to `NCCCNC(=O)[C@@H]1C[C@@H](OCc2ccccc2)CN1C(=O)[C@@H](Cc1ccccc1)NC(=O)[C@H]1Cc2ccccc2CN1` [Example 24], the inhibition at 1 µM stood at 17% in assay [1], 0% in assay [3], 0% in assay [6] and 5% in assay [8].

On to `[2H]N[C@@H](Cc1cnc[nH]1)C(=O)N[C@@H](Cc1ccccc1)C(=O)N1C[C@H](OCc2ccccc2)C[C@H]1C(=O)NCCCCN` [Example 25], for which the inhibition at 1 µM is 50% in assay [1], 7% in assay [3], 12% in assay [6] and 2% in assay [8].

With `[2H]N[C@@H](Cc1cnc[nH]1)C(=O)N[C@@H](Cc1ccccc1)C(=O)N1C[C@H](OCc2ccccc2)C[C@H]1C(=O)NCCCCCN` [Example 26], the inhibition at 1 µM was determined as 42% in assay [1], 7% in assay [3], 0% in assay [6] and 1% in assay [8].

Take `[2H]N[C@@H](Cc1cnc[nH]1)C(=O)N[C@@H](Cc1ccccc1)C(=O)N1C[C@H](OCc2ccccc2)C[C@H]1C(=O)NCCCCCCN` [Example 27]: the inhibition at 1 µM in assay [1] was determined as 36%; in assay [3], 8%; in assay [6], 0%; in assay [8], 2%.

For the compound `[2H]N[C@@H](Cc1cnc[nH]1)C(=O)N[C@@H](Cc1ccccc1)C(=O)N1C[C@H](OCc2ccccc2)C[C@H]1C(N)=O` [Example 28, His-D-Phe-Hyp(Bzl)-NH2], the inhibition at 1 µM in assay [1] turned out to be 0%; in assay [3], 5%; in assay [6], 0%; in assay [8], 0%.

As to `[2H]N[C@@H](Cc1cnc[nH]1)C(=O)N[C@@H](Cc1ccccc1)C(=O)N1C[C@H](OCc2ccccc2)C[C@H]1C(=O)NCCCNC(=N)N` [Example 29], the inhibition at 1 µM in assay [1] was determined as 0%; in assay [3], 4%; in assay [6] it was 0%; in assay [8], 6%.

Take `CCCCCCC(=O)N[C@@H](Cc1cnc[nH]1)C(=O)N[C@H](Cc1ccccc1)C(=O)N1C[C@H](OCc2ccccc2)C[C@H]1C(=O)NCCCNC(=N)N` [Example 30, Heptanoyl-His-D-Phe-Hyp(Bzl)-NH(CH2)3—NH—C(═NH)—NH2]: the “Inhibition at 1 μM MC1-R” value in assay [1] is listed as 92%. Moreover, the “Inhibition at 1 μM MC5-R” value in assay [3] amounted to 1%. Further, in assay [6], the “Inhibition at 1 μM MC3-R” value turned out to be 7%. Besides, the “Inhibition at 1 μM MC4-R” value in assay [8] is on record as 1%.

With `[2H]N[C@@H](Cc1ccccc1)C(=O)N1C2CC[C@H](COc3ccccc3)N2C(=O)[C@@H]1CCCCN` (stereo partly drawn) [Example 36], the “Inhibition at 1 μM MC1-R” value in assay [1] stood at 0%. Moreover, in assay [3], the “Inhibition at 1 μM MC5-R” value is listed as 0%. The “Inhibition at 1 μM MC3-R” value in assay [6] stood at 41%. Further, the “Inhibition at 1 μM MC4-R” value in assay [8] came out at 8%.

For `[2H]N[C@@H](Cc1ccccc1)C(=O)N1C2CC[C@H](COc3ccc4ccccc4c3)N2C(=O)[C@@H]1CCCCN` (stereo partly drawn) [Example 38], the “Inhibition at 1 μM MC1-R” value in assay [1] worked out at 0%. For the same compound, the “Inhibition at 1 μM MC5-R” value in assay [3] came out at 1%. In assay [6], the “Inhibition at 1 μM MC3-R” value was determined as 0%. Besides, the “Inhibition at 1 μM MC4-R” value in assay [8] is 13%.

As for `[2H]N[C@@H](Cc1cnc[nH]1)C(=O)N[C@@H](Cc1ccccc1)C(=O)N1C2CC[C@H](COc3ccc4ccccc4c3)N2C(=O)[C@@H]1CCCCN` (stereo partly drawn) [Example 42], in assay [1], the “Inhibition at 1 μM MC1-R” value is listed as 18%. Also, the “Inhibition at 1 μM MC5-R” value in assay [3] is recorded as 0%. For the same compound, in assay [6], the “Inhibition at 1 μM MC3-R” value is on record as 0%. Also, in assay [8], the “Inhibition at 1 μM MC4-R” value worked out at 10%.

As for `[2H]N1CCC[C@@H]1C(=O)N[C@@H](Cc1ccccc1)C(=O)N1C[C@H](OCc2ccccc2)C[C@H]1C(=O)NCCCN` [Example 44], the inhibition at 1 µM in assay [1] turned out to be 13%; in assay [3], 0%; in assay [6] it was 0%; in assay [8], 11%.
